Experimental data from ChEMBL document CHEMBL1201862, “PubChem BioAssay data set” (2004).
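96-well plates; 48 h exposure; 5 concentrations. Endpoints by linear interpolation between flanking doses. Not reached: highest tested concentration assigned. GI50 marks 50% less growth.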 Calls of active or inactive are those of the source. Rule as the data show it: active = GI50 up to about 1.1 µM and inactive = higher.

Columns and labels:
Assay in all cases: DTP human tumour cell line panel, 48 h
UACC-257 = tested on: UACC-257
NCI-H522 = tested on: NCI-H522
NCI-H460 = tested on: NCI-H460
UACC-62 = tested on: UACC-62
EKVX = tested on: EKVX
UO-31 = tested on: UO-31
Malme-3M = tested on: Malme-3M
RXF 393 = tested on: RXF 393
SNB-19 = tested on: SNB-19
CAKI-1 = tested on: CAKI-1
IGROV-1 = tested on: IGROV-1
SN12C = tested on: SN12C
MDA-N = tested on: MDA-N
HL-60 = tested on: HL-60
HCT-116 = tested on: HCT-116
SK-MEL-2 = tested on: SK-MEL-2
MDA-MB-435 = tested on: MDA-MB-435
OVCAR-4 = tested on: OVCAR-4
SW-620 = tested on: SW-620
KM12 = tested on: KM12
OVCAR-8 = tested on: OVCAR-8
COLO 205 = tested on: COLO 205
HCC 2998 = tested on: HCC 2998
A498 = tested on: A498
SK-OV-3 = tested on: SK-OV-3
HOP-62 = tested on: HOP-62
SF-268 = tested on: SF-268
MDA-MB-231 = tested on: MDA-MB-231
K562 = tested on: K562
MCF7 = tested on: MCF7
786-0 = tested on: 786-0
NCI/ADR-RES = tested on: NCI/ADR-RES
CCRF-CEM = tested on: CCRF-CEM
HCT-15 = tested on: HCT-15
A549 = tested on: A549
OVCAR-5 = tested on: OVCAR-5
ACHN = tested on: ACHN
BT-549 = tested on: BT-549
TK-10 = tested on: TK-10
SF-295 = tested on: SF-295
PC-3 = tested on: PC-3
Hs-578T = tested on: Hs-578T
T47D = tested on: T47D
SK-MEL-28 = tested on: SK-MEL-28
OVCAR-3 = tested on: OVCAR-3
NCI-H226 = tested on: NCI-H226
SK-MEL-5 = tested on: SK-MEL-5
M14 = tested on: M14
DU-145 = tested on: DU-145
RPMI-8226 = tested on: RPMI-8226
SF-539 = tested on: SF-539
HT-29 = tested on: HT-29
U-251 = tested on: U-251
HOP-92 = tested on: HOP-92
MOLT-4 = tested on: MOLT-4
SNB-75 = tested on: SNB-75
NCI-H23 = tested on: NCI-H23
LOX IMVI = tested on: LOX IMVI
SR = tested on: SR

CN(CC(=O)O)CC(=O)O
GI50 (UACC-257): > 100 µM (inactive)
GI50 (NCI-H522): > 100 µM (inactive)
GI50 (NCI-H460): > 100 µM (inactive)
GI50 (UACC-62): > 100 µM (inactive)
GI50 (EKVX): > 100 µM (inactive)
GI50 (UO-31): > 100 µM (inactive)
GI50 (Malme-3M): > 100 µM (inactive)
GI50 (RXF 393): > 100 µM (inactive)
GI50 (SNB-19): > 100 µM (inactive)
GI50 (CAKI-1): > 100 µM (inactive)
GI50 (IGROV-1): > 100 µM (inactive)
GI50 (SN12C): > 100 µM (inactive)
GI50 (MDA-N): > 100 µM (inactive)
GI50 (HL-60): > 100 µM (inactive)
GI50 (HCT-116): > 100 µM (inactive)
GI50 (SK-MEL-2): > 100 µM (inactive)
GI50 (MDA-MB-435): > 100 µM (inactive)
GI50 (OVCAR-4): > 100 µM (inactive)
GI50 (SW-620): > 100 µM (inactive)
GI50 (KM12): > 100 µM (inactive)
GI50 (OVCAR-8): > 100 µM (inactive)
GI50 (COLO 205): 68.2 µM (inactive)
GI50 (HCC 2998): > 100 µM (inactive)
GI50 (A498): > 100 µM (inactive)
GI50 (SK-OV-3): > 100 µM (inactive)
GI50 (HOP-62): > 100 µM (inactive)
GI50 (SF-268): > 100 µM (inactive)
GI50 (MDA-MB-231): > 100 µM (inactive)
GI50 (K562): > 100 µM (inactive)
GI50 (MCF7): > 100 µM (inactive)
GI50 (786-0): > 100 µM (inactive)
GI50 (NCI/ADR-RES): > 100 µM (inactive)
GI50 (CCRF-CEM): > 100 µM (inactive)
GI50 (HCT-15): > 100 µM
GI50 (A549): > 100 µM (inactive)
GI50 (OVCAR-5): > 100 µM (inactive)
GI50 (ACHN): > 100 µM (inactive)
GI50 (BT-549): > 100 µM (inactive)
GI50 (TK-10): > 100 µM (inactive)
GI50 (SF-295): > 100 µM (inactive)
GI50 (PC-3): > 100 µM (inactive)
GI50 (Hs-578T): > 100 µM (inactive)
GI50 (T47D): > 100 µM (inactive)
GI50 (SK-MEL-28): > 100 µM (inactive)
GI50 (OVCAR-3): > 100 µM (inactive)
GI50 (NCI-H226): > 100 µM (inactive)
GI50 (SK-MEL-5): 31 µM (inactive)
GI50 (M14): > 100 µM (inactive)
GI50 (DU-145): > 100 µM (inactive)
GI50 (RPMI-8226): > 100 µM (inactive)
GI50 (SF-539): > 100 µM (inactive)
GI50 (HT-29): > 100 µM (inactive)
GI50 (U-251): > 100 µM (inactive)
GI50 (HOP-92): > 100 µM (inactive)
GI50 (MOLT-4): > 100 µM (inactive)
GI50 (SNB-75): 0.427 µM (active)
GI50 (NCI-H23): > 100 µM (inactive)
GI50 (LOX IMVI): > 100 µM (inactive)

c1ccc2c(c1)CCc1c-2n(CCN2CCOCC2)c2ccccc12
GI50 (UACC-257): 32.9 µM (inactive)
GI50 (NCI-H522): 13.3 µM (inactive)
GI50 (NCI-H460): 26.5 µM (inactive)
GI50 (UACC-62): > 100 µM (inactive)
GI50 (EKVX): > 100 µM (inactive)
GI50 (UO-31): > 100 µM (inactive)
GI50 (Malme-3M): 13.6 µM (inactive)
GI50 (SNB-19): > 100 µM (inactive)
GI50 (CAKI-1): 22.1 µM (inactive)
GI50 (IGROV-1): 11.7 µM (inactive)
GI50 (SN12C): > 100 µM (inactive)
GI50 (MDA-N): > 100 µM (inactive)
GI50 (HCT-116): > 100 µM (inactive)
GI50 (SK-MEL-2): 11.8 µM (inactive)
GI50 (MDA-MB-435): > 100 µM (inactive)
GI50 (OVCAR-4): > 100 µM (inactive)
GI50 (SW-620): > 100 µM (inactive)
GI50 (KM12): 13.5 µM (inactive)
GI50 (SR): 15 µM (inactive)
GI50 (OVCAR-8): > 100 µM (inactive)
GI50 (COLO 205): 37.4 µM (inactive)
GI50 (HCC 2998): 14.3 µM (inactive)
GI50 (SK-OV-3): 26 µM (inactive)
GI50 (HOP-62): 68.4 µM (inactive)
GI50 (SF-268): > 100 µM (inactive)
GI50 (MDA-MB-231): > 100 µM (inactive)
GI50 (K562): 2.14 µM (inactive)
GI50 (MCF7): > 100 µM (inactive)
GI50 (786-0): > 100 µM (inactive)
GI50 (NCI/ADR-RES): > 100 µM (inactive)
GI50 (CCRF-CEM): 21.2 µM (inactive)
GI50 (HCT-15): > 100 µM
GI50 (A549): > 100 µM (inactive)
GI50 (OVCAR-5): > 100 µM (inactive)
GI50 (ACHN): > 100 µM (inactive)
GI50 (BT-549): > 100 µM (inactive)
GI50 (TK-10): > 100 µM (inactive)
GI50 (SF-295): 28.3 µM (inactive)
GI50 (PC-3): 19.1 µM (inactive)
GI50 (Hs-578T): 12.8 µM (inactive)
GI50 (T47D): > 100 µM (inactive)
GI50 (SK-MEL-28): 34.6 µM (inactive)
GI50 (OVCAR-3): > 100 µM (inactive)
GI50 (NCI-H226): 52.6 µM (inactive)
GI50 (SK-MEL-5): 18.8 µM (inactive)
GI50 (M14): 44 µM (inactive)
GI50 (DU-145): > 100 µM (inactive)
GI50 (RPMI-8226): 35.2 µM (inactive)
GI50 (SF-539): 37.9 µM (inactive)
GI50 (HT-29): 13.2 µM (inactive)
GI50 (U-251): > 100 µM (inactive)
GI50 (HOP-92): 17.8 µM (inactive)
GI50 (MOLT-4): 29.9 µM (inactive)
GI50 (NCI-H23): > 100 µM (inactive)
GI50 (LOX IMVI): > 100 µM (inactive)
